Laboratory results reported in patent publication US9475814B2, “Chiral N-acyl-5,6,7(8-substituted)-tetrahydro-[1,2,4]triazolo[4,3-a]pyrazines as selective NK-3 receptor antagonists, pharmaceutical composition, methods for use in NK-3 receptor mediated disorders and chiral synthesis thereof” (Euroscreen S.A., priority 2011, dated 2016).
Where two headings read alike, the source gives them in different places.

Tests used:
[1] = biological target: hERG channel (Homo sapiens (Human), UniProt Q12809); assay: hERG inhibition assay (manual patch-clamp, HEK 293 cells)
Sequence of hERG channel (Q12809 whole entry): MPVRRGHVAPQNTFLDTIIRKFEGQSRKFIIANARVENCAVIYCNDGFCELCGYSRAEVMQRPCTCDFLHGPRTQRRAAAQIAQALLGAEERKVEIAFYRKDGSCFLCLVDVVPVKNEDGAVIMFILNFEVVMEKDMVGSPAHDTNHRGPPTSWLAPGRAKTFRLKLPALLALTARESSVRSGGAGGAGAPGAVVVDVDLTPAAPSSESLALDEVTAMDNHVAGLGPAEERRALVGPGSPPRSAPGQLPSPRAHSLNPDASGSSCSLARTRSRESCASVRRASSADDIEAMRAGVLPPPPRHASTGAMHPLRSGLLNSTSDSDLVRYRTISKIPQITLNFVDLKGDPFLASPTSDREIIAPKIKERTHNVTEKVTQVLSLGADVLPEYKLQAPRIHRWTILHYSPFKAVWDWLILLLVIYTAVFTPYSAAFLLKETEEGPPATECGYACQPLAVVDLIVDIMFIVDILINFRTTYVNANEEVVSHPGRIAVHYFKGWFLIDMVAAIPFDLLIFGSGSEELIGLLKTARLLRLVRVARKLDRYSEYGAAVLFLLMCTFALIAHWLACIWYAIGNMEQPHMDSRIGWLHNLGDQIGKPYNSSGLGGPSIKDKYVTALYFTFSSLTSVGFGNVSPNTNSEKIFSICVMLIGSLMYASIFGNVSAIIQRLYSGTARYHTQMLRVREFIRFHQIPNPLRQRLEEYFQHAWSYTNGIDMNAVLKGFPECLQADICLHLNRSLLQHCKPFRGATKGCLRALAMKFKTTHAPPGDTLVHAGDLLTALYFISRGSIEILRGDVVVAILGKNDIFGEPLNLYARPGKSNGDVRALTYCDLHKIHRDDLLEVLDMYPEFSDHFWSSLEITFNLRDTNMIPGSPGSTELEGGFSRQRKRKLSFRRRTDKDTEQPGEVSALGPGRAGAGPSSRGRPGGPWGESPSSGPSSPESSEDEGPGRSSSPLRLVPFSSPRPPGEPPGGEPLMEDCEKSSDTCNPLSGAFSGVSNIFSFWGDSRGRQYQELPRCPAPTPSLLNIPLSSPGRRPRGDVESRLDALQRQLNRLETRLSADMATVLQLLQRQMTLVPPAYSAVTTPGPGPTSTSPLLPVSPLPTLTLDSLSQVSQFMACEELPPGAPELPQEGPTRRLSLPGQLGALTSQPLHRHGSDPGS

[2] = biological target: human NK1 receptor (Homo sapiens (Human), UniProt P25103); assay: Human NK1 [3H] substance P binding assay (selectivity); conditions: read-out: NK1 Ki; CHO membranes, 2 nM [3H] substance P
Sequence of human NK1 receptor (P25103 whole entry): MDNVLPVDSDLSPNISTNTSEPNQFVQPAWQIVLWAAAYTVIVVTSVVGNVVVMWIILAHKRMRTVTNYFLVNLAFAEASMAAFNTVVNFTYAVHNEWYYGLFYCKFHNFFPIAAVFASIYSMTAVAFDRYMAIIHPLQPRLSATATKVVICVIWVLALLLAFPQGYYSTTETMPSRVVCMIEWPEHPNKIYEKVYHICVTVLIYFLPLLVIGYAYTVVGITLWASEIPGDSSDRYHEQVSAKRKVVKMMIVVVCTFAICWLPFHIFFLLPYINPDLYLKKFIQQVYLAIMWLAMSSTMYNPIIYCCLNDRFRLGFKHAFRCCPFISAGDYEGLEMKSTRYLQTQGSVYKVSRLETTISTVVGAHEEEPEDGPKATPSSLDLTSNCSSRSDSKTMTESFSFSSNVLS

[3] = system: circulating levels of testosterone; assay: Gonad-intact adult male rat, circulating testosterone; format: in vivo; conditions: single intravenous 50 mg/kg dose, gonad-intact male Sprague-Dawley rats, over the 210 minute test period (AUC)
[4] = biological target: human NK2 receptor (Homo sapiens (Human), UniProt P21452); assay: Human NK2 [125I]-Neurokinin A binding assay (selectivity); conditions: read-out: NK2 Ki; CHO membranes, 0.1 nM [125I]-Neurokinin A
Sequence of human NK2 receptor (P21452 whole entry): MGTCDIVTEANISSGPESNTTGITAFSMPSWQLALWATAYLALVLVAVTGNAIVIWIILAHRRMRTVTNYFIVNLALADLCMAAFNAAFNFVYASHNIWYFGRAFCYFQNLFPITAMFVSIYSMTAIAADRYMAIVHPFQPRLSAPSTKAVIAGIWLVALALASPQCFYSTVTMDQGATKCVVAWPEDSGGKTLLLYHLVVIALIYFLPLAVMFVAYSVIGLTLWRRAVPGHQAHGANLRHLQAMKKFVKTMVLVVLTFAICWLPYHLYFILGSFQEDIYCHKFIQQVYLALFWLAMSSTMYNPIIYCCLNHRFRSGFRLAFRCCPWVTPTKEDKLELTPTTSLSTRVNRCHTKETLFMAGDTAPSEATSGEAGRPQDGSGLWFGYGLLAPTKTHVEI

[5] = system: circulating levels of luteinizing hormone (LH); assay: Castrated male rat model, circulating luteinizing hormone (LH); format: in vivo; conditions: single intravenous 10 mg/kg dose, castrated male Sprague-Dawley rats, 1 hour after dosing
Excerpt: Castrated Male Rat Model to Assess the Effect of Compound of Invention on Circulating Levels of Luteinizing Hormone (LH).
In humans and rodents, castration is well-precedented to permit heightened, persistent GnRH signaling and consequent elevation of circulating LH. Thus, a castrated rat model is used to provide a broad index for measurement of LH inhibition as a marker of test compound inhibition of the GnRH signaling pathway.
Castrated adult male Sprague-Dawley (SD) rats (150-175 g) were purchased from Janvier (St Berthevin, France). […] The animals were allowed 2 weeks of postoperative recovery prior to study. Animals were handled on a daily basis. Standard diet and tap water were provided ad libitum. Animal cage litters were changed once a week. On the study day, animals were acclimated to the procedure room for a period of one hour prior to the initiation of the experiment.
Compounds of the invention were formulated as apyrogen water with 90 g/L (2-Hydroxypropyl)-β-CycloDextrin.
After basal sampling (T0) a single dose of compounds of the invention or vehicle was administrated intravenously to rats. Blood was then collected at 60 min post dosing. Blood samples were obtained via tail vein bleed, drawn into EDTA-containing tubes and centrifuged immediately. […] Serum LH levels were determined using radioimmunoassay kit from RIAZEN—Rat LH, Zentech (Liège, Belgium). […]

[6] = biological target: T1, human NK-3 receptor (Homo sapiens (Human), UniProt P29371); assay: 3H-SB222200 binding competition assay with human NK-3 receptor
T1 sequence (P29371 whole entry): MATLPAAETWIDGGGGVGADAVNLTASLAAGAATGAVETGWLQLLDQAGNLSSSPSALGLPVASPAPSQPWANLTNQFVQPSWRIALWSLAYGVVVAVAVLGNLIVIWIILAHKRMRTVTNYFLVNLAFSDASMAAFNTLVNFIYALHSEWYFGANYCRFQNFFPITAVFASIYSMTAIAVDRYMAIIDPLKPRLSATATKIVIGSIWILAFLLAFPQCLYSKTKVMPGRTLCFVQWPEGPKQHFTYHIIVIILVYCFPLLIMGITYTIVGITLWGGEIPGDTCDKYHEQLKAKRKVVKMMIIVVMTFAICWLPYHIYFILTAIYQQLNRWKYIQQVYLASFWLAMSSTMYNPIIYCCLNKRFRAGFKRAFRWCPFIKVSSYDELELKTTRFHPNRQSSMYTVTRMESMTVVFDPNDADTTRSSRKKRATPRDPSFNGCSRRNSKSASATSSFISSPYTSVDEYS
Procedure: ^3H-SB222200 Binding Competition Assay with Human NK-3 Receptor
The membranes were incubated with 5 nM ^3H-SB222200(ARC) in a HEPES 25 mM/NaCl 0.1M/CaCl2 1 mM/MgCl2 5 Mm/BSA 0.5%/Saponin 10 μg/ml buffer at pH 7.4 and various concentrations of compounds of the invention. The amount of ^3H-SB222200 bound to the receptor was determined after filtration by the quantification of membrane associated radioactivity using the TopCount-NXT reader (Packard).

[7] = biological target: T1, human NK-3 receptor; assay: Aequorin functional assay with human NK-3 receptor (antagonist testing vs NKA); format: cell-based; conditions: inhibition of NKA (3 nM, EC80) response, CHO cells expressing human NK3 receptor and apoaequorin
[8] = Table 6, membranes of CHO cells expressing human NK3 receptor, 5 nM 3H-SB222200, read-out: Ki
[9] = Table 7, human NK-3 receptor, read-out: NK3 Ki

| SMILES | IC50 [1] [nM] | Ki [2] [nM] | plasma testosterone levels [3] | Ki [4] [nM] | circulating LH levels [5] | Ki [6, 8] [nM] | Ki [6, 9] [nM] | IC50 [7] [nM] |
| --- | --- | --- | --- | --- | --- | --- | --- | --- |
| Cc1nc(-c2nnc3n2CCN(C(=O)c2ccc(-c4cccs4)cc2)[C@@H]3C)cs1 [Compound 1, (R)-(8-methyl-3-(2-methylthiazol-4-yl)-5,6-dihydro-[1,2,4]triazolo[4,3-a]pyrazin-7(8H)-yl) (4-(thiophen-2-yl)phenyl)methanone] | > 30000 | 12700 | significantly suppressed plasma testosterone levels | 14000 | significantly suppressed circulating LH levels |  |  |  |
| Cc1nc(-c2nnc3n2CCN(C(=O)c2ccc(-c4cccs4)cc2)[C@@H]3C)co1 [Compound 11, (R)-(8-methyl-3-(2-methyloxazol-4-yl)-5,6-dihydro-[1,2,4]triazolo[4,3-a]pyrazin-7(8H)-yl)(4-(thiophen-2-yl)phenyl)methanone] | > 30000 | > 10000 |  | > 10000 |  | 44 | 44 | 34 |
| Cc1csc(-c2nnc3n2CCN(C(=O)c2ccc(-c4cccs4)cc2)[C@@H]3C)n1 [Compound 19, (R)-(8-methyl-3-(4-methylthiazol-2-yl)-5,6-dihydro-[1,2,4]triazolo[4,3-a]pyrazin-7(8H)-yl)(4-(thiophen-2-yl)phenyl)methanone] |  |  |  |  | significantly suppressed circulating LH levels | 6 |  | 8 |
| C[C@@H]1c2nnc(-c3cccc(O)n3)n2CCN1C(=O)c1ccc(-c2cccs2)cc1 [Compound 31, (R)-(3-(6-hydroxypyridin-2-yl)-8-methyl-5,6-dihydro-[1,2,4]triazolo[4,3-a]pyrazin-7(8H)-yl)(4-(thiophen-2-yl)phenyl)methanone] | 20000 | > 10000 |  | > 10000 |  | 22 | 22 | 18 |
